The text below walks through data of paper PMC12329707, “Ancestral Sequence Reconstruction of the Ethylene-Forming Enzyme” (Biochemistry, 2025).

Structures are written as SMILES.

Assay [1] concerns the target T1, PaIPNS (Pseudomonas aeruginosa, UniProt Q9HWJ0).
T1 construct: gene PA4191; synthetic codon-optimised gene in pET28a, E. coli; N-terminal His6 tag removed by TEV; EDTA-treated apoprotein reconstituted with Fe(II)
T1 sequence (Q9HWJ0 1-334): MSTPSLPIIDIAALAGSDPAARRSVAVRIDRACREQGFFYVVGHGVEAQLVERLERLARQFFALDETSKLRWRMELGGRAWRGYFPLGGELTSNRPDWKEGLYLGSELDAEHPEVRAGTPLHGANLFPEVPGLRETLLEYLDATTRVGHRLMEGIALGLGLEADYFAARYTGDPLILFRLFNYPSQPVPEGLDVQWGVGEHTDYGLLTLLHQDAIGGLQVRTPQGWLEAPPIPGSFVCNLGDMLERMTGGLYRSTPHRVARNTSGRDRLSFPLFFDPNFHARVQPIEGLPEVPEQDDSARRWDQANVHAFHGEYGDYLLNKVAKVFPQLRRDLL
The assay is described as follows: anaerobic UV-visible difference spectroscopy (MLCT). As to conditions: Fe(II) 1 mM, dithionite 2 mM, 25 mM HEPES pH 7.5. The class given is binding.

In assay [2] the test system is T2, Anc357 (synthetic construct).
T2 construct: pET28a, E. coli; N-terminal His6 tag removed by TEV; 37,413 Da expected after cleavage; monomer
The description is as above. It is filed as binding. As to conditions: Fe(II).

The target in assay [3] is T3, Din11 (Arabidopsis thaliana, UniProt Q8H113).
T3 construct: gene 2ODDC23.2; synthetic codon-optimised gene in pET28a, E. coli; N-terminal His6 tag, removed by TEV; Fe(II) added
T3 sequence (Q8H113 1-357): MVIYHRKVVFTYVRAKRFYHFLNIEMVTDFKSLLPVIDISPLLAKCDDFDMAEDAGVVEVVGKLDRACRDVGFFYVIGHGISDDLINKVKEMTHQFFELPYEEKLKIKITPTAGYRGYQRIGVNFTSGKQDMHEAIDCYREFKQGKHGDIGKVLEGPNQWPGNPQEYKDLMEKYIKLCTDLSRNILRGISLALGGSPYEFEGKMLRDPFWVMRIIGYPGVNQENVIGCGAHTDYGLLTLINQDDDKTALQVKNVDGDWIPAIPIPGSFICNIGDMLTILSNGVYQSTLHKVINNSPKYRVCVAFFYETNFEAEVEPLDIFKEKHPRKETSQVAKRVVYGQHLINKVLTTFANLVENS
The assay is described as follows: P5C formation, colorimetric assay. The class given is biochemical. As to conditions: 2OG 6.67 mM, L-Arg 6.67 mM, Fe(II) 0.4 mM, ascorbate 0.8 mM, HEPES pH 7.5, room temperature.

`O=C(O)CCC(=O)C(=O)O` [2OG]: the “anaerobic UV-visible difference spectroscopy (MLCT)” value in assay [1] is reported as “The PaIPNS spectra clearly demonstrated that PaIPNS binds 2OG”; in assay [2] it was “consistent with 2OG binding (Figure S6)”.

With `N=C(N)NCCC[C@H](N)C(=O)O` [L-Arg], the “P5C formation, colorimetric assay” value in assay [3] is listed as “this enzyme hydroxylated L-Arg to produce P5C”.
